What was measured:
[1] = tested on: σ expression in HCT116 and other CRC cell lines; test: Northern blot of σ expression following adriamycin treatment; format: cell-based, human; details: 0.2 ug/ml adriamycin
Experimental: (FIG. 1B) σ Expression following adriamycin treatment. Seven different CRC cell lines were treated with 0.2 ug/ml adriamycin (+) or vehicle (−) as indicated. RNA was prepared 24 hours following adriamycin treatment. Autoradiographs of Northern blots performed with σ, p21 and EF1 probes are shown. The p53 status of the respective cell lines is indicated on the top.
Northern blotting with a radiolabeled probe generated from σ cDNA was performed to confirm the SAGE results. […] Previous reports have shown that σ expression is limited to epithelial cells.
Total RNA was prepared by CsCl gradient ultracentrifugation of guanidine isothiocyanate-lysed cells as described. […].

HCT116 cells = format: cell-based, human

Compound	induction of σ expression ([1]; HCT116 cells, RNA 24 hours after treatment)	σ expression in other colorectal cancer cell lines ([1]; several other CRC cell lines, 24 hours)	effect on polyploidization of Ad-σ infected cells (HCT116 cells)
COc1cccc2c1C(=O)c1c(O)c3c(c(O)c1C2=O)C[C@@](O)(C(=O)CO)C[C@@H]3O[C@H]1C[C@H](N)[C@H](O)[C@H](C)O1 [adriamycin]	similarly induce σ expression	express σ at relatively high levels	–
CN[C@H]1CCc2cc(OC)c(OC)c(OC)c2-c2ccc(OC)c(=O)cc21 [colcemid]	–	–	did not prevent this polyploidization

Reference: patent publication US6740523B2 (priority 1997, dated 2004)
